Common to all, as to type: cell-based, human
The test system of assay [1] is hmNPCs. Kind of assay: Long-term proliferation: number of living cells (hemocytometer, trypan blue exclusion). The method, then:
(§1) To determine long-term proliferation, hmNPCs were plated and expanded for 2 passages with or without addition of various agents (see below) to the custom expansion media containing the growth factors EGF and FGF2. Different fetal midbrain tissues were included in this study. At the end of the proliferation period, differentiation of hmNPCs was induced via replacement of expansion media with mitogen-free media containing 1% FCS, 5 µM forskoline (Sigma-Aldrich Chemie GmbH Munich, Germany), and 100 pg/ml IL-1β (Sigma). The differentiation and expansion media were supplemented with different drugs as appropriate. Prior to immunocytochemistry or protein extraction, hmNPCs were allowed to differentiate for 1 week. To determine short-term proliferation via Ki67 immunostaining, the cells were seeded into 24-well plates (70,000 cells/well) and left overnight to rest. P2 receptor agonists (ATP, UTP, ATP + UTP, ADP, ADPβS) were supplied daily for 5 consecutive days. Ki67/nestin double-positive cells were counted in 8 randomly selected fields of nucleotide-treated or untreated samples. For the assessment of MAPK phosphorylation the cells were kept free of mitogens for 2 d prior to addition of the MEK-inhibitor in expansion media. In addition, the MEK-inhibitor was added during the differentiation period 15 min before UTP administration.
(§2) UTP, UDP, ATP, ADP, ADPβS and suramin were purchased from Sigma (Sigma-Aldrich Chemie GmbH Munich, Germany). UTP and UDP were applied at different concentrations (1 µM, 10 µM, 100 µM), ATP at 100 µM, ADP at 100 µM, and ADPβS at100 µM. During expansion of the cells, the nucleotides were renewed once a week with every media change, unless otherwise stated. They were applied once at the beginning of the differentiation period. The P2 receptor antagonist suramin (10 µM) was added to expansion media 30 min prior to addition of UTP (100 µM). The stock solution of the MEK1/2 inhibitor U0126 (Promega Corporation, Mannheim, Germany) was prepared in dimethyl sulfoxide (DMSO) at a concentration of 10 mM. The stock solution was then diluted in 0.1 M PBS to obtain a concentration of 1 mM. MEK inhibitor (final concentration 10 µM) was added to mitogen-free expansion media, 15 min before UTP treatment (1 µM) of hmNPCs.
Cell counting of control (untreated) and treated hmNPCs was performed using a hemocytometer. Adherent cells were collected by detachment with accutase™ (PAA Laboratories, Pasching, Austria) for 10 min at 37°C. […] The number of total and trypan blue-positive cells was then determined by counting at least 300 cells per sample in a hemocytometer.

The subject of assay [2] is hmNPCs. Kind of assay: Cell death / cell cycle assay (propidium iodide, FACS). The note with it: for Sub-G1 / G0/G1 / G2/M / S: 48 h, 100 µM nucleotides, pretreated 30 minutes with 10 µM suramin or 100 µM PPADS where named; for G0/G1 / G2/M / S: mean ± SEM, n = 3. The protocol:
Untreated (control) and treated exponentially growing […] were prepared for cell cycle analysis by lysing cells in 300 μl of hypotonic lysis buffer (0.1% sodium citrate, 0.1% Triton X-100, and 50 μg/ml propidium iodide [PI]). […] Histograms of DNA content were acquired using the CellQuest software. […] For data analysis and correction of the background, noise histograms were processed with the ModFit LT software (Verity, Turramurra, Australia).

The subject of assay [3] is hmNPCs. Briefly: Dopaminergic differentiation: counting of TH-positive cells by immunocytochemistry. The method, then: as §1, §2
Expanded or one week differentiated hmNPCs were fixed with 4% paraformaldehyde in PBS for 10 min at room temperature and washed with PBS, counterstained with the DNA-binding dye 4'-6-Diamidino-2-phenylindole (DAPI, 2 µg/ml in PBS) for 15 min at room temperature, washed twice in PBS followed by incubation in blocking buffer (10% FCS, 0.2% Triton-X 100 in PBS, pH 7.2) for 30 min at room temperature. After incubation with a primary antibody (over night at 4°C in blocking buffer), the cells were incubated with fluorescent secondary antibodies, Alexa Fluor® 488 conjugate or Alexa Fluor® 594 conjugate (Molecular Probes, Eugene, USA). Cover-slips were mounted onto glass slides and examined under a fluorescence microscope (Zeiss Axiovert 200). Acquisition of the cells was performed using the Image-analysis software AxioVision 4 (Carl Zeiss AG, Jena, Germany). The following primary antibodies were used for immunofluorescence: rabbit polyclonal anti-β-tubulin III (anti-Tuj1) antibody, rabbit polyclonal anti-tyrosine hydroxylase antibody , mouse monoclonal anti-nestin antibody (Pharmingen, San Diego, CA, USA), rabbit polyclonal anti-Ki67 antigen antibody (Novocastra Laboratories Ltd, Newcastle upon Tyne, UK). Estimation of the TH-positive cell numbers was performed by counting of cells among approximately 1000 differentiated cells in total within 6 randomly selected fields.

Assay [4] has as its system hmNPCs. Kind of assay: Short-term proliferation: Ki67/nestin immunostaining. The conditions noted are these: 100 µM; 5 subsequent days. The protocol:
as §1, with “hmNPCs” left out, “μM” for “µM”, “administration. […] Cover-slips were mounted onto glass slides and examined under a fluorescence microscope (Zeiss Axiovert 200). Acquisition of the cells was performed using the Image-analysis software AxioVision 4 (Carl Zeiss AG, Jena, Germany). The following primary antibodies were used for immunofluorescence: rabbit polyclonal anti-β-tubulin III (anti-Tuj1) antibody, rabbit polyclonal anti-tyrosine hydroxylase antibody , mouse monoclonal anti-nestin antibody (Pharmingen, San Diego, CA, USA), rabbit polyclonal anti-Ki67 antigen antibody (Novocastra Laboratories Ltd, Newcastle upon Tyne, UK). Estimation of the TH-positive cell numbers was performed by counting of cells among approximately 1000 differentiated cells in total within 6 randomly selected fields.” for “administration.”

The subject of assay [5] is hmNPCs. Kind of assay: Dopaminergic differentiation: TH protein expression by Western blot. The conditions noted are these: for expression of TH, pre-treatment before UTP: 10 µM pre-treatment, 100 µM UTP, one week of differentiation. The method, then:
as §1, §2
(§3) In order to prepare protein extracts, hmNPCs were collected, washed with ice-cold PBS and lysed in buffer [10 mM HEPES-KOH (pH 7.9), 10 mM KCI, 1.5 mM MgCl2, 0.1% NP-40], supplemented with protease inhibitor cocktail (Roche). After a brief centrifugation at 4°C/10 000×g, protein concentrations and protein yield from extracts were determined using the Bradford method (Bio-Rad, Hercules, CA, USA). To preserve the phosphorylation state of proteins, extracts for the MAPK experiment were obtained using the PhosphoSafe™ extraction reagent containing phophatase inhibitors (Novagen). […] Membranes were blocked with 5% (wt/vol) nonfat dry milk in PBS-T (PBS, 0.1% (vol/vol) Tween 20) for 2 h at room temperature and subsequently incubated with the desired primary antibody (diluted in PBS containing 5% non-fat milk and 0.1% Tween 20) overnight at 4 °C with gentle agitation. The membrane was incubated with horseradish peroxidase-coupled secondary antibody for 1 h at room temperature. Chemiluminescence detection was performed by incubating the membranes with SuperSignal-Dura substrate (Pierce Biotechnology, Rockford, U.S.A) followed by analysis on a CCD cooling camera (Fuji LAS-1000plus). The chemiluminescence was quantified using the AIDA, two-dimensional densitometry software (Raytest lsotopenmeb, Straubenhardt, Germany).

Assay [6] has as its system ERK1/2. Briefly: ERK1/2 (MAPK) phosphorylation by Western blot. The note with it: for expression of phosphorylated ERK1/2, pre-treatment before UTP: 10 µM pre-treatment, 100 µM UTP, one week of differentiation. The protocol: as §1, §2
as §3, with “Chemiluminescence detection was performed by incubating the membranes with SuperSignal-Dura substrate (Pierce Biotechnology, Rockford, U.S.A) followed by analysis on a CCD cooling camera (Fuji LAS-1000plus).” left out
(In general: In western blotting, separated proteins are transferred to a membrane and probed.)

Setting [7] is: 10 µM antagonist 30 min before 100 µM UTP.

The record followed here is patent EP1897937A1, “Method of culturing NPCs” (NeuroProgen GmbH Leipzig, priority 2006, dated 2008).

For the compound `Nc1ncnc2c1ncn2[C@@H]1O[C@H](COP(=O)(O)OP(=O)(O)O)[C@@H](O)[C@H]1O` [ADP, adenosine diphosphate], the “number of living cells” value in assay [1] (100 µM each, 2 weeks in expansion media, on coapplication ADP 30 min before UTP, 20160 min) is recorded as 4 ± 0.5%. In assay [2], the Sub-G1 came to 0.54%, the G0/G1 is 84.64 ± 0.41%, the G2/M was 3.72 ± 0.20% and the S amounted to 11.63 ± 0.2%. In addition, the activity at 100 µM in assay [3] (Homo sapiens, 168 h, 100 µM each, once, only during the differentiation period of one week, read-out: number of TH-positive (dopaminergic) cells as compared to control) is 11 ± 3%. In addition, the Ki67-positive cells entry in assay [4] is “strong reduction”.
`Nc1ncnc2c1ncn2[C@@H]1O[C@H](COP(=O)(O)OP(O)(O)=S)[C@@H](O)[C@H]1O` [ADPβS]: in assay [2], the Sub-G1 is 0.82%, the G0/G1 was determined as 84.21 ± 0.06%, the G2/M is listed as 3.61 ± 0.01% and the S was 12.17 ± 0.05%. The Ki67-positive cells result in assay [4] is listed as “strong reduction”.
For `Nc1ncnc2c1ncn2[C@@H]1O[C@H](COP(=O)(O)OP(=O)(O)OP(=O)(O)O)[C@@H](O)[C@H]1O` [ATP, adenosine triphosphate] the same measures were 0.56%, 91.69 ± 1.19%, 1.42 ± 0.11%, 6.89 ± 1.17% and “strong reduction”.
As to `N#CC(=C(/N)Sc1ccccc1N)/C(C#N)=C(\N)Sc1ccccc1N` [U0126], the “proliferation of hmNPCs” value in assay [1] (data not shown) is “reduced”. The “expression of TH, pre-treatment before UTP” value in assay [5] is “remained at basal levels”. Further, in assay [6] (10 µM inhibitor for 15 min before 1 µM UTP), the “UTP-induced phosphorylation of ERK1/2, inhibitor pretreatment” value was “abrogated”. Besides, the “expression of phosphorylated ERK1/2, pre-treatment before UTP” value in assay [6] is reported as “remained at basal levels”.
For the compound `O=c1ccn([C@@H]2O[C@H](COP(=O)(O)OP(=O)(O)O)[C@@H](O)[C@H]2O)c(=O)[nH]1` [UDP, uridine 5'-diphosphate], the TH protein levels result in assay [5] (100 µM during the differentiation period) is “no increase”. For the same compound, the activity at 1 µM in assay [5] (Homo sapiens, 1 µM during the differentiation period, read-out: TH expression in immunoblots) amounted to 194 ± 7%. Further, the activity at 10 µM in assay [5] (Homo sapiens, 10 µM during the differentiation period, read-out: TH expression in immunoblots) was 180 ± 8%.
Consider `Cc1ccc(C(=O)Nc2ccc(S(=O)(=O)O)c3cc(S(=O)(=O)O)cc(S(=O)(=O)O)c23)cc1NC(=O)c1cccc(NC(=O)Nc2cccc(C(=O)Nc3cc(C(=O)Nc4ccc(S(=O)(=O)O)c5cc(S(=O)(=O)O)cc(S(=O)(=O)O)c45)ccc3C)c2)c1` [suramin], for which, in assay [2] (30 minutes pretreatment, 10 µM suramin or 100 µM PPADS), the “block of the anti-proliferative effects of ATP, ADP and ADPβS” value is recorded as “failed to block”. Besides, the “number of TH-positive cells, antagonist before UTP” value in assay [3] (setting [7]) is “reduced”. For the same compound, in assay [5] (setting [7]), the “TH protein content, antagonist before UTP” value is listed as “decreased”. In addition, the “expression of TH, pre-treatment before UTP” value in assay [5] is listed as “remained at basal levels”. Also, in assay [6], the “expression of phosphorylated ERK1/2, pre-treatment before UTP” value is recorded as “remained at basal levels”.
